Data taken from patent US10941157B2, “Pesticidal compositions and uses thereof” (Gilead Apollo, LLC, priority 2015, dated 2021).
Values after ≈ are worked out from the molar mass of the structure shown. Read-outs that look alike come from different tables or passages of the source.

Legend:
[1] = system: Septoria tritici (St); experiment: In vitro pathogen growth inhibition assay, St; type: cell-based; details: Zymoseptoria tritici, 48 h
Summary of the method: (§1)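 Spores in 17% V8 liquid medium, or 1.5 mm Rs mycelial plugs in ¼ PDB, incubated with compound; final concentration checked by OD600 for precipitation. OD readings at 24 and 48 h, blank-subtracted, plus visual ratings; value is concentration giving ≥90% growth inhibition.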

[2] = system: Blumeria graminis f. sp. hordei; experiment: Foliar protection test for barley powdery mildew control; type: in vivo; details: foliar spray on Hordeum vulgare cv. Perry, inoculated 24 hours after treatment, evaluated 7 days later
Summary of the method: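 Six-day-old barley (cv. Perry) sprayed to wetness on both leaf sides; 24 h later inoculated by shaking spores from infected stock plants. Kept at 20 to 22° C, 70% relative humidity; mildew colonization assessed 7 days later.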

[3] = system: Diplodia maydis (Dm); experiment: In vitro pathogen growth inhibition assay, Dm; type: cell-based; details: Stenocarpella maydis, 48 h
Summary of the method: (§2)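 Spores of Dm, Fv and Pc were diluted in 17% V8 liquid medium; Rs used 1.5 mm mycelial plugs in ¼ PDB. Compounds from 2.5 mg/ml DMSO stocks were combined with inoculum, growth was read by OD600 at 24 and 48 h with blank subtraction, and the reported value is the concentration giving ≥90% inhibition.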

[4] = system: Botrtyis cinerea (Bc); experiment: In vitro pathogen growth inhibition assay, Bc; type: cell-based; details: 48 h
Summary of the method: as §1

[5] = system: Phakopsora pachyrhizi; experiment: Foliar protection test for Asian soybean rust control; type: in vivo; details: foliar application to soybean (Glycine max AG4832), percent disease area evaluated 14 days later
[6] = system: Phytophthora capsici (Pc); experiment: In vitro pathogen growth inhibition assay, Pc; type: cell-based; details: 48 h
Summary of the method: as §2

[7] = system: Fusarium virguliforme (Fv); experiment: In vitro pathogen growth inhibition assay, Fv; type: cell-based
Summary of the method: as §2

[8] = system: Fusarium graminearum; type: in vivo; details: spray on flowering Triticum aestivum cv. Samson, inoculated 24 hours after treatment, evaluated 14 days later
[9] = system: Rhizoctonia solani (Rs); experiment: In vitro pathogen growth inhibition assay, Rs (mycelial plugs); type: cell-based; details: Rhizoctonia solani, 48 h, mycelial plugs
Summary of the method: as §2

[10] = system: Collectotrichum graminicola (Cg); experiment: In vitro pathogen growth inhibition assay, Cg; type: cell-based; details: 48 h
Summary of the method: as §1

[11] = system: Mycosphaerella graminicola (synthetic Septoria tritici); experiment: Foliar protection test for wheat septoria leaf blotch control; type: in vivo; details: foliar spray on Triticum aestivum cv. WinterHawk, inoculated 1 hour after treatment, evaluated 16 days later
[12] = system: Sphaerotheca fuliginea; experiment: Foliar protection for cucumber powdery mildew control; type: in vivo; details: foliar spray on Cucumis sativus cv. Straight Eight, inoculated 24 hours after treatment, evaluated 7 days later
Summary of the method: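 Cucumber plants (cv. Straight Eight, 10 days old) sprayed to wetness on both leaf surfaces, then inoculated 24 h later by shaking sporulating stock plants over them. Held at 23–27 °C, 16 h light, 60% RH. Mildew colonization scored 7 days after inoculation, at compound concentrations of 10 ppm or lower.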

[13] = system: Fusarium moniliforme (Fm); experiment: In vitro pathogen growth inhibition assay, Fm; type: cell-based; details: Fusarium verticillioides
Summary of the method: as §1

[14] = system: Puccinia triticina; experiment: Foliar protection test for wheat leaf rust control; type: in vivo; details: foliar application to wheat (Triticum aestivum cv. Winterhawk), evaluated 10 days later
[15] = ≥90% inhibition, 48 hours vs 2% DMSO control, read-out: Compound Concentration (ppm) sufficient for ≥90% inhibition of growth, St
[16] = ≥90% inhibition, 48 hours vs 2% DMSO control, read-out: Compound Concentration (ppm) sufficient for ≥90% inhibition of growth, Dm
[17] = ≥90% inhibition, 48 hours vs 2% DMSO control, read-out: Compound Concentration (ppm) sufficient for ≥90% inhibition of growth, Bc
[18] = ≥90% inhibition, 48 hours vs 2% DMSO control, read-out: Compound Concentration (ppm) sufficient for ≥90% inhibition of growth, Pc
[19] = ≥90% inhibition, 48 hours vs 2% DMSO control, read-out: Compound Concentration (ppm) sufficient for ≥90% inhibition of growth, Fv
[20] = ≥90% inhibition, 48 hours vs 2% DMSO control, read-out: Compound Concentration (ppm) sufficient for ≥90% inhibition of growth, Rs
[21] = ≥90% inhibition, 48 hours vs 2% DMSO control, read-out: Compound Concentration (ppm) sufficient for ≥90% inhibition of growth, Cg
[22] = ≥90% inhibition, 48 hours vs 2% DMSO control, read-out: Compound Concentration (ppm) sufficient for ≥90% inhibition of growth, Fm
[23] = ≥90% growth inhibition, 48 hours, vs 2% DMSO control, read-out: Compound Concentration (ppm) sufficient for ≥90% inhibition of St
[24] = ≥90% growth inhibition, 48 hours, vs 2% DMSO control, read-out: Compound Concentration (ppm) sufficient for ≥90% inhibition of Dm
[25] = ≥90% growth inhibition, 48 hours, vs 2% DMSO control, read-out: Compound Concentration (ppm) sufficient for ≥90% inhibition of Bc
[26] = ≥90% growth inhibition, 48 hours, vs 2% DMSO control, read-out: Compound Concentration (ppm) sufficient for ≥90% inhibition of Pc
[27] = ≥90% growth inhibition, 48 hours, vs 2% DMSO control, read-out: Compound Concentration (ppm) sufficient for ≥90% inhibition of Fv
[28] = ≥90% growth inhibition, 48 hours, vs 2% DMSO control, read-out: Compound Concentration (ppm) sufficient for ≥90% inhibition of Rs
[29] = ≥90% growth inhibition, 48 hours, vs 2% DMSO control, read-out: Compound Concentration (ppm) sufficient for ≥90% inhibition of Cg
[30] = ≥90% growth inhibition, 48 hours, vs 2% DMSO control, read-out: Compound Concentration (ppm) sufficient for ≥90% inhibition of Fm

Row | SMILES | IC90 [1, 15] [µg/mL] | Barley Powdery Mildew Control at a compound concentration of 10 ppm or lower [2] | IC90 [3, 16] [µg/mL] | IC90 [4, 17] [µg/mL] | Asian Soybean Rust Control at a compound concentration of 25 ppm or lower [5] | IC90 [6, 18] [µg/mL] | IC90 [7, 19] [µg/mL] | Wheat Fusarium Head Blight Control at a compound concentration of 25 ppm or lower [8] | IC90 [9, 20] [µg/mL] | Septoria Leaf Blotch Control at a compound concentration of 25 ppm or lower [11] | Cucumber Powdery Mildew Control at a compound concentration of 10 ppm or lower [12] | Wheat Leaf Rust Control at a compound concentration of 10 ppm or lower [14] | IC90 [1, 23] [µg/mL] | IC90 [3, 24] [µg/mL] | IC90 [4, 25] [µg/mL] | IC90 [6, 26] [µg/mL] | IC90 [7, 27] [µg/mL] | IC90 [9, 28] [µg/mL] | IC90 [10, 29] [µg/mL] | IC90 [13, 30] [µg/mL] | also measured
1 | COc1ccccc1[C@H](Cn1c(=O)n(C(C)(C)C(=O)N2CCCC2)c(=O)c2c(C)c(-n3nccn3)sc21)OC1CCOCC1 [Compound I-034, (R)-1-(2-(2-methoxyphenyl)-2-((tetrahydro-2H-pyran-4-yl)oxy)ethyl)-5-methyl-3-(2-methyl-1-oxo-1-(pyrrolidin-1-yl)propan-2-yl)-6-(2H-1,2,3-triazol-2-yl)thieno[2,3-d]pyrimidine-2,4(1H,3H)-dione] | ≥ 2 | AA (≥85% control of barley powdery mildew) | ≥ 0.4 | 0.4 (≈ 0.642 µM) | AA (≥85% control of Asian soybean rust) | ≥ 10 | 0.4 (≈ 0.642 µM) | C (from 25 to 49% control of wheat fusarium head blight) | 0.08 (≈ 0.128 µM) | B (from 50 to 69% control of wheat septoria leaf blotch) | AA (≥85% control of cucumber powdery mildew) | AA (≥85% control of wheat leaf rust) | – | – | – | – | – | – | – | – | IC90 [10, 21]: ≥ 0.4 µg/mL; IC90 [13, 22]: 0.08 µg/mL (≈ 0.128 µM)
2 | COc1ccc(F)cc1[C@@H](O)Cn1c(=O)n([C@H](C)C(=O)N(C)C(C)C)c(=O)c2c(C)c(-n3nccn3)sc21 [Compound I-188, (R)-2-(1-((R)-2-(5-fluoro-2-methoxyphenyl)-2-hydroxyethyl)-5-methyl-2,4-dioxo-6-(2H-1,2,3-triazol-2-yl)-1,4-dihydrothieno[2,3-d]pyrimidin-3 (2H)-yl)-N-isopropyl-N-methylpropanamide] | – | AA (≥85% control of barley powdery mildew) | – | – | B (from 50 to 69% control of Asian soybean rust) | – | – | D (<25% control of wheat fusarium head blight) | – | C (from 25 to 49% control of wheat septoria leaf blotch) | AA (≥85% control of cucumber powdery mildew) | AA (≥85% control of wheat leaf rust) | > 50 | 2 (≈ 3.67 µM) | 0.4 (≈ 0.734 µM) | > 50 | 0.4 (≈ 0.734 µM) | 0.4 (≈ 0.734 µM) | 2 (≈ 3.67 µM) | 0.08 (≈ 0.147 µM) | –
3 | COc1ccc(F)cc1[C@H](Cn1c(=O)n([C@H](C)C(=O)N2CCCC2)c(=O)c2c(C)c(-n3nccn3)sc21)OCCC#N [Compound I-202, 3-((R)-1-(5-fluoro-2-methoxyphenyl)-2-(5-methyl-2,4-dioxo-3-((R)-1-oxo-1-(pyrrolidin-1-yl)propan-2-yl)-6-(2H-1,2,3-triazol-2-yl)-3,4-dihydrothieno[2,3-d]pyrimidin-1(2H)-yl)ethoxy)propanenitrile] | – | A (from 70% to 84% control of barley powdery mildew) | – | – | A (from 70% to 84% control of Asian soybean rust) | – | – | D (<25% control of wheat fusarium head blight) | – | D (<25% control of wheat septoria leaf blotch) | AA (≥85% control of cucumber powdery mildew) | A (from 70% to 84% control of wheat leaf rust) | > 50 | 2 (≈ 3.36 µM) | ≥ 0.4 | ≥ 50 | 0.4 (≈ 0.672 µM) | 0.4 (≈ 0.672 µM) | 2 (≈ 3.36 µM) | 0.08 (≈ 0.134 µM) | –
4 | COc1ccc(F)cc1[C@H](Cn1c(=O)n(C(C)(C)C(=O)NC(C)C)c(=O)c2c(C)c(-n3nccn3)sc21)OC[C@H](C)C#N [Compound I-212, 2-(1-((R)-2-((R)-2-cyanopropoxy)-2-(5-fluoro-2-methoxyphenyl)ethyl)-5-methyl-2,4-dioxo-6-(2H-1,2,3-triazol-2-yl)-1,4-dihydrothieno[2,3-d]pyrimidin-3 (2H)-yl)-N-isopropyl-2-methylpropanamide] | – | AA (≥85% control of barley powdery mildew) | – | – | AA (≥85% control of Asian soybean rust) | – | – | B (from 50 to 69% control of wheat fusarium head blight) | – | AA (≥85% control of wheat septoria leaf blotch) | AA (≥85% control of cucumber powdery mildew) | AA (≥85% control of wheat leaf rust) | > 50 | ≥ 0.08 | 0.4 (≈ 0.654 µM) | > 50 | 0.4 (≈ 0.654 µM) | 0.08 (≈ 0.131 µM) | 0.08 (≈ 0.131 µM) | 0.08 (≈ 0.131 µM) | –
5 | COc1ccc(F)cc1[C@H](Cn1c(=O)n([C@@H](C)C(=O)N(C)C(C)C)c(=O)c2c(C)c(-n3nccn3)sc21)OCCO [Compound I-089, (S)-2-(1-((R)-2-(5-fluoro-2-methoxyphenyl)-2-(2-hydroxyethoxy)ethyl)-5-methyl-2,4-dioxo-6-(2H-1,2,3-triazol-2-yl)-1,4-dihydrothieno[2,3-d]pyrimidin-3 (2H)-yl)-N-isopropyl-N-methylpropanamide] | ≥ 10 | B (from 50 to 69% control of barley powdery mildew) | 2 (≈ 3.4 µM) | > 0.4 | A (from 70% to 84% control of Asian soybean rust) | ≥ 50 | > 0.4 | D (<25% control of wheat fusarium head blight) | 0.08 (≈ 0.136 µM) | C (from 25 to 49% control of wheat septoria leaf blotch) | AA (≥85% control of cucumber powdery mildew) | AA (≥85% control of wheat leaf rust) | – | – | – | – | – | – | – | – | IC90 [10, 21]: > 0.4 µg/mL; IC90 [13, 22]: 0.08 µg/mL (≈ 0.136 µM)
